Test results taken from US12558348B2, “Bioactive phytochemicals” (Phytoquest Limited, priority 2019, dated 2026).

Test system: TNF-α
Assay: Production of TNF-α by human monocytic cell line THP-1
Format: cell-based
Procedure: THP-1 cells are commercially available. Cultured cells can be placed in RPMI complete medium in microtitre plates (e.g. […] in 96 well plates) and after 24 hrs incubation, PMA (10 ng/mi) added to 96 well plate to differentiate THP-1 cells and to determine the effects on TNF-α and IL-10 production. The cells should be pre-treated with cucumber extract at, for example, 200 μg/ml to 25 μg/ml followed by 2 hr LPS (100 ng/ml) stimulation. Post incubation, the cell supernatant is aspirated from each of the wells into sterile micro centrifuge tubes and centrifuged at 1000 rpm for 2-3 mins to settle any cells if present. The cell supernatant is then used for evaluation of presence of TNF-α or IL-10 using ELISA. Sandwich ELISA plates coated with suitable antibody are widely available (e.g. R&D Systems, USA).
A second study indicated even greater activity for idoBR1 in human blood (significant at 0.01 μM) with pre-incubation. […] The data clearly indicate that idoBR1 can inhibit the production of TNF-α in human blood. Thus, it appears that it may be a potent anti-inflammatory agent. It also appears that it may be acting via a novel mechanism distinct from the steroid receptor pathways.

CC#C[C@]1(O)CC[C@H]2[C@@H]3CCC4=CC(=O)CCC4=C3[C@@H](c3ccc(N(C)C)cc3)C[C@@]21C [Mifepristone, reference compound] was tested, and the “effect on TNF-α production from THP-1 cells” value (alone with LPS) was “greatly amplified”.

Work on C[C@@H]1C[C@H]2[C@@H]3CCC4=CC(=O)C=C[C@]4(C)[C@@]3(F)[C@@H](O)C[C@]2(C)[C@@]1(O)C(=O)CO [dexamethasone, reference compound] yielded an inhibition at 50 µM (Homo sapiens, THP-1, 50 μM, identical pretreatment) greater than 65%.
